Laboratory results from patent US20200237937A1, “COMPOSITIONS AND METHODS FOR ASSESSING […] PATHOLOGY” (Navidea Biopharmaceuticals, Inc., priority 2019, published 2020).
Like-named read-outs stand apart in the source and are kept apart here.

Tests used:
[1] = target: T1, mannose receptor (CD206) (Homo sapiens, UniProt P22897); details: for Mean Joint Specific MARTAD: 5 healthy subjects, IV, 10 mCi 99mTc; for Cutoff Value (MARTAD 2 S.D. above the joint specific mean): from 5 healthy subjects
Experimental: In certain aspects, the pixel intensities of the ROI and RR are used to derive normalized region-specific mannose receptor targeted localization determination (MARTAD) value. The MARTAD value is quantitative index of the amount of imaging agent localization that can be attributable to disease activity in planar images. Defined broadly, the MARTAD value is determined by assessing the ratio of average pixel intensity of the ROI to the average pixel intensity of the RR. In certain alternative embodiments, the MARTAD value is determined by assessing the ratio of maximum pixel intensity of the ROI to the maximum pixel intensity of the RR.
Following MARTAD value determination for a joint or plurality of joints, the MARTAD value can be used to determine macrophage involvement by comparing the MARTAD of the first joint to a normal MARTAD value for a corresponding joint (e.g., RtPIP2 RA vs RtPIP2 healthy). In certain implementations, the normal MARTAD value is determined by aggregating the MARTAD values for each joint from a pool of healthy subjects (e.g., not suffering from RA). In exemplary implementations, the method for defining the joint specific RR in the pool of healthy subjects will be the same as that used for the patient population. Macrophage involvement in a subject is indicated by a joint specific MARTAD value that exceeds the normal MARTAD value by a predetermined threshold. […] In certain alternative implementations, the predetermined threshold subject joint MARTAD value greater above the 95% confidence interval of the average MARTAD value corresponding joint from the plurality of healthy subjects.
(§1) The mass dose of tilmanocept injected into the subjects varied from 125 μg to 400 μg. […] The images shown in FIGS. 1 and 2 were acquired using a Siemens Symbia Intevo camera. Image acquisition times varied between studies from 5-10 minutes.
Cutoff values for determination of macrophage involvement in RA inflammation set at MARTAD values greater than 2 S.D. above the joint specific mean.

[2] = target: T1, mannose receptor (CD206)
Experimental: as §1

T1 sequence (P22897 19-1456): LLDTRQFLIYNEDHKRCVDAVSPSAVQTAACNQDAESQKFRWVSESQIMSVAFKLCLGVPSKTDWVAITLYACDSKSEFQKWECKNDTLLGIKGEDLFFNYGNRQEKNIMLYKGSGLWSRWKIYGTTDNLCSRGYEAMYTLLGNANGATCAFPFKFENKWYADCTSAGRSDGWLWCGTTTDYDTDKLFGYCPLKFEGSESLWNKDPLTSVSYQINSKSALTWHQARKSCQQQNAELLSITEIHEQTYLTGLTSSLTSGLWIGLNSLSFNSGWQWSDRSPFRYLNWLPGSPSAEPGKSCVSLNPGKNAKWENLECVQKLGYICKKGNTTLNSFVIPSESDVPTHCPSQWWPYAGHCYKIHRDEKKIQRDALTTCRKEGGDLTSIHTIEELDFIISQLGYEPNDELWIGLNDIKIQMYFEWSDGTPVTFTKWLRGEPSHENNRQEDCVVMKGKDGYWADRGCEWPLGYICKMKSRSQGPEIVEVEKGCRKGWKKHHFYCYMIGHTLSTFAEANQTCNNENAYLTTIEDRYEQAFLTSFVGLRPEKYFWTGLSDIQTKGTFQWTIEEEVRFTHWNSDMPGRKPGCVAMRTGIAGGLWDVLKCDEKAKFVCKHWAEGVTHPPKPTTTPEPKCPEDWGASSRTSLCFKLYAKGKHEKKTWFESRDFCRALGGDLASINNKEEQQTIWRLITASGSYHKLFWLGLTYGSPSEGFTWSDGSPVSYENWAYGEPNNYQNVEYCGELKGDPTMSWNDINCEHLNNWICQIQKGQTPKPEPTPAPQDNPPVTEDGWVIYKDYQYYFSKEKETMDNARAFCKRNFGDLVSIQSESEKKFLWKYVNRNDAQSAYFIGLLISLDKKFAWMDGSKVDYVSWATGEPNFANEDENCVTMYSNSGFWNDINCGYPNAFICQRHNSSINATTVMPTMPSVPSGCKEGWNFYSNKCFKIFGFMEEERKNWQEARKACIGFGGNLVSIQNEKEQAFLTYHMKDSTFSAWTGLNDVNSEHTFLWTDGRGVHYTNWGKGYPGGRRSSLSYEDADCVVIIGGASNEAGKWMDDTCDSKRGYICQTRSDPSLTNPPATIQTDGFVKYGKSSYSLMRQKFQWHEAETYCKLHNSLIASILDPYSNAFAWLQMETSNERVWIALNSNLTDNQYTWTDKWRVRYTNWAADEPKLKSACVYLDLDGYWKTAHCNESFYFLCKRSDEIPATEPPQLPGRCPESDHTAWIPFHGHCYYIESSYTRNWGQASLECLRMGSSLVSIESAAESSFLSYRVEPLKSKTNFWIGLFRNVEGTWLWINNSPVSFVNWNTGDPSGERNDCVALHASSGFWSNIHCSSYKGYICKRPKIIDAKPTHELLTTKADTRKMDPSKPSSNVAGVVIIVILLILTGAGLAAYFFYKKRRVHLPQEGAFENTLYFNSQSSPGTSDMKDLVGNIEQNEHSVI

Question: “dextran 3-[(2-aminoethyl)thio]propyl 17-carboxy-10,13,16-tris(carboxymethyl)-8-oxo-4-thia-7,10,13,16-tetraazaheptadec-1-yl 3-[[2-[[1-imino-2-(D-mannopyranosylthio)ethyl]amino]ethyl]thio]propyl ether complexes [Tc99m-tilmanocept]” was tested. Which “Mean Joint Specific MARTAD” value ([1]; MCP1) did it give?
Answer: The value was 0.87.

Question: What about the “Cutoff Value (MARTAD 2 S.D. above the joint specific mean)” value (“Cutoff Value” below) ([1]; MCP1) of the same substance?
Answer: Its value is 0.99.

Question: What about the “Mean Joint Specific MARTAD” value ([1]; MCP2) of the same substance?
Answer: Its value is 0.86.

Question: What about the “Cutoff Value” value ([1]; MCP2) of the same substance?
Answer: Its value is 1.13.

Question: What about the “Mean Joint Specific MARTAD” value ([1]; MCP3) of the same substance?
Answer: Its value is 0.79.

Question: What about the “Cutoff Value” value ([1]; MCP3) of the same substance?
Answer: Its value is 0.93.

Question: What about the “Mean Joint Specific MARTAD” value ([1]; MCP4) of the same substance?
Answer: The value was 0.77.

Question: And the “Cutoff Value” value ([1]; MCP4)?
Answer: Its value is 1.00.

Question: What about the “Mean Joint Specific MARTAD” value ([1]; MCP5) of the same substance?
Answer: Its value is 0.76.

Question: And the “Cutoff Value” value ([1]; MCP5)?
Answer: The value was 1.08.

Question: And the “Mean Joint Specific MARTAD” value ([1]; PIP1)?
Answer: The value was 0.98.

Question: What about the “Cutoff Value” value ([1]; PIP1) of the same substance?
Answer: The value was 1.21.

Question: And the “Mean Joint Specific MARTAD” value ([1]; PIP2)?
Answer: Its value is 1.05.

Question: And the “Cutoff Value” value ([1]; PIP2)?
Answer: Its value is 1.34.

Question: What about the “Mean Joint Specific MARTAD” value ([1]; PIP3) of the same substance?
Answer: The value was 1.03.

Question: What about the “Cutoff Value” value ([1]; PIP3) of the same substance?
Answer: Its value is 1.39.

Question: And the “Mean Joint Specific MARTAD” value ([1]; PIP4)?
Answer: The value was 0.93.

Question: What about the “Cutoff Value” value ([1]; PIP4) of the same substance?
Answer: The value was 1.19.

Question: And the “Mean Joint Specific MARTAD” value ([1]; PIP5)?
Answer: Its value is 0.87.

Question: What about the “Cutoff Value” value ([1]; PIP5) of the same substance?
Answer: Its value is 1.14.

Question: What about the “Mean Joint Specific MARTAD” value ([1]; Wrists, images 45-75 min after injection) of the same substance?
Answer: Its value is 1.04.

Question: What about the “Cutoff Value” value ([1]; Wrists) of the same substance?
Answer: The value was 1.24.

Question: What about the “Sensitivity of MARTAD values to image acquisition time” value ([2]; image acquisition times 5-10 minutes) of the same substance?
Answer: The value was “not sensitive”.

Question: What about the “Effect of mass dose on image quality” value ([2]; mass dose of tilmanocept 125 μg to 400 μg IV, separate studies (not shown)) of the same substance?
Answer: Its value is “did not impact image quality”.

Question: What about the “MARTAD values of repeat images versus first images” value ([2]; repeat images 180-240 minutes after injection vs 45-75 minutes, same subjects) of the same substance?
Answer: The value was “statistically similar”.
